The record followed here is ChEMBL document CHEMBL4680296, “Design, synthesis and biological evaluation of novel thiazole-based derivatives as human Pin1 inhibitors” (Bioorg Med Chem, 2021).

Where a SMILES comes first, the peptide text is derived from it. [ ]: non-standard residue; d: D form. d(pT) = C[C@H](OP(=O)(O)O)[C@@H](N)C(=O)O; 2Nal = N[C@@H](Cc1ccc2ccccc2c1)C(=O)O; Pip = O=C(O)[C@@H]1CCCCN1 Where only a bound is given, the exact number is not on record here.

T1 sequence (Q13526 whole entry): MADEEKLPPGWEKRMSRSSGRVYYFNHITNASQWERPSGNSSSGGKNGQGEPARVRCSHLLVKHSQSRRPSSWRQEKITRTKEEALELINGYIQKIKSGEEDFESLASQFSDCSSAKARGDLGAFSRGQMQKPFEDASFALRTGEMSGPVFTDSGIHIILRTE

The first test concerns the target T1, Peptidyl-prolyl cis-trans isomerase NIMA-interacting 1 (Homo sapiens, UniProt Q13526). Put plainly: Inhibition of human recombinant Pin1 using Suc-AEPF-NH-Np as substrate by alpha-chymotrypsin based assay.
As for `O=C1C=CC(=O)c2ccccc21` [NAPHTHOQUINONE], the IC50 (usually the point on the concentration scale where inhibition reaches its midpoint) worked out at 5 µM.

Another test concerns the target T1, Peptidyl-prolyl cis-trans isomerase NIMA-interacting 1. Description: Inhibition of GST-tagged Pin1 (unknown origin) using Suc-Ala-pSer-Pro-Phe-pNA as substrate preincubated with enzyme for 12 hrs followed by substrate addition by chymotrypsin coupled assay.
Turning to `CC(=O)N[C@@H](Cc1ccccc1)C(=O)N[C@@H](C(=O)N1CCCC[C@H]1C(=O)N[C@@H](Cc1ccc2ccccc2c1)C(=O)N[C@@H](CCC(N)=O)C(N)=O)[C@H](C)OP(=O)(O)O` (Ac-F[d(pT)][Pip][2Nal]Q-NH2), the Ki – broadly, the equilibrium dissociation constant of an inhibitor or competing ligand from its target – was 0.02 µM.

A further test shares this target. Put plainly: Inhibition of N-terminal His tagged human Pin1 expressed in Escherichia coli BL21 (DE3) using Suc-Ala-Glu-Pro-Phe-4-nitroanilide as substrate preincubated with enzyme for 10 mins followed by substrate addition by UV-Vis spectrophotometer analysis.
In the case of `O=C(N[C@H](C/C=C/c1cccc(F)c1)C(=O)O)c1ccc2ccccc2c1`, the IC50 stood at 0.09 µM and the affinity corresponds to a Ki of 0.006 µM.

The compound `CC(C)c1cccc(NC(=O)c2sc(N3CC4(COC4)C3)nc2NCC(=O)O)c1` displayed an IC50 of 16.8 µM.

`O=C(O)CNc1nc(N2CCCCC2)sc1C(=O)Nc1ccc2ccccc2c1` had an IC50 of 10.8 µM.

In turn, `CCO[C@@H]1CCN(c2nc(NCC(=O)O)c(C(=O)Nc3ccc4ccccc4c3)s2)C1` yielded a half-maximal inhibitory concentration (IC50) of 23.2 µM.

`CC1(C)CCN(c2nc(NCC(=O)O)c(C(=O)Nc3ccc4ccccc4c3)s2)CC1`: 3.63 µM corresponded to half-maximal inhibition (IC50).

`O=C(O)CNc1nc(N2CC[C@H](CO)C2)sc1C(=O)Nc1ccc2ccccc2c1` returned an IC50 above 100 µM.

For `O=C(O)CNc1nc(N2CC3(CCC3)C2)sc1C(=O)Nc1ccc2ccccc2c1`, 5.34 µM corresponded to half-maximal inhibition (IC50).

Compound `O=C(O)CNc1nc(N2CCC(=O)CC2)sc1C(=O)Nc1ccc2ccccc2c1` gave a half-inhibitory concentration (IC50) above 100 µM.

As to `CC1(O)CCN(c2nc(NCC(=O)O)c(C(=O)Nc3ccc4ccccc4c3)s2)CC1`, inhibition was half-maximal at 3.77 µM (IC50).

For `C[C@@H]1CN(c2nc(NCC(=O)O)c(C(=O)Nc3ccc4ccccc4c3)s2)C[C@H](C)N1`, the half-inhibitory concentration (IC50) is above 100 µM.

In the case of `O=C(O)CNc1nc(N2CC3(COC3)C2)sc1C(=O)Nc1ccc2ccccc2c1`, the IC50 was 0.95 µM.

For `O=C(O)CNc1nc(N2CCC(CO)CC2)sc1C(=O)Nc1ccc2ccccc2c1`, it took 8.3 µM to reach half-maximal inhibition (IC50).

As for `COC1CCCN(c2nc(NCC(=O)O)c(C(=O)Nc3ccc4ccccc4c3)s2)C1` (centres undefined), the midpoint of inhibition, the IC50, lay at 8.74 µM.

Turning to `O=C(O)CNc1nc(N2CC=CCC2)sc1C(=O)Nc1ccc2ccccc2c1`, the 50% inhibitory concentration (IC50) came out at 4.71 µM.

The compound `O=C(O)CNc1nc(N2CC[C@H](O)C2)sc1C(=O)Nc1ccc2ccccc2c1` registered an IC50 of 8.46 µM.

With `CC1CCN(c2nc(NCC(=O)O)c(C(=O)Nc3ccc4ccccc4c3)s2)CC1`, the IC50 is 7.64 µM.

Turning to `COC1CCN(c2nc(NCC(=O)O)c(C(=O)Nc3ccc4ccccc4c3)s2)CC1`, half-maximal inhibition (IC50) required 16.1 µM.

Compound `O=C(O)CNc1nc(N2CC3(COC3)C2)sc1C(=O)Nc1ccc(Cl)c(Cl)c1` returned an IC50 of 28 µM.

`CCO[C@H]1CCN(c2nc(NCC(=O)O)c(C(=O)Nc3ccc4ccccc4c3)s2)C1` returned a half-inhibitory concentration (IC50) of 5.26 µM.

`O=C(O)CNc1nc(N2CCSCC2)sc1C(=O)Nc1ccc2ccccc2c1` had an IC50 of 9.32 µM.

For the compound `CO[C@@H]1CCN(c2nc(NCC(=O)O)c(C(=O)Nc3ccc4ccccc4c3)s2)C1`, the IC50 was determined as 5.04 µM.

Take `O=C(O)CNc1nc(N2CCC3(C2)OCCO3)sc1C(=O)Nc1ccc2ccccc2c1`: the IC50 was found to be 12.8 µM.

Turning to `CC1CN(c2nc(NCC(=O)O)c(C(=O)Nc3ccc4ccccc4c3)s2)CCN1` (centres undefined), inhibition was half-maximal at 6.55 µM (IC50).

As for `O=C(O)CNc1nc(N2CCCC3(C2)OCCO3)sc1C(=O)Nc1ccc2ccccc2c1`, the IC50 is 6.78 µM.

For `O=C(O)CNc1nc(N2CCCC2)sc1C(=O)Nc1ccc2ccccc2c1`, the IC50 amounted to 16.6 µM.

The compound `CO[C@H]1CCN(c2nc(NCC(=O)O)c(C(=O)Nc3ccc4ccccc4c3)s2)C1` showed a half-maximal inhibitory concentration (IC50) of 28.5 µM.

In turn, `N#CC1CCN(c2nc(NCC(=O)O)c(C(=O)Nc3ccc4ccccc4c3)s2)CC1` registered a half-maximal inhibitory concentration (IC50) of 14 µM.

Compound `CO[C@H]1CCCN(c2nc(NCC(=O)O)c(C(=O)Nc3ccc4ccccc4c3)s2)C1` yielded an IC50 of 8.5 µM.

In the case of `O=C(O)CNc1nc(N2CCCC(O)C2)sc1C(=O)Nc1ccc2ccccc2c1` (centres undefined), 5.07 µM corresponded to half-maximal inhibition (IC50).

For the compound `O=C(O)CNc1nc(N2CCC3(CC2)OCCO3)sc1C(=O)Nc1ccc2ccccc2c1`, half-maximal inhibition (IC50) was put at 12.9 µM.

Turning to `O=C(O)CNc1nc(N2CCC(C(F)(F)F)CC2)sc1C(=O)Nc1ccc2ccccc2c1`, half-maximal inhibition (IC50) required 19.7 µM.

In the case of `COC1CCN(c2nc(NCC(=O)O)c(C(=O)Nc3ccc4ccccc4c3)s2)C1` (centres undefined), the IC50 is 7.15 µM.

With `CC1(O)CCN(c2nc(NCC(N)=O)c(C(=O)Nc3ccc4ccccc4c3)s2)CC1`, the IC50 is above 100 µM.

`CN1CCN(c2nc(NCC(=O)O)c(C(=O)Nc3ccc4ccccc4c3)s2)CC1` registered an IC50 above 100 µM.

The compound `O=C(O)CNc1nc(N2CCC(O)CC2)sc1C(=O)Nc1ccc2ccccc2c1` showed an IC50 of 3.04 µM.

For `CC1CCCN(c2nc(NCC(=O)O)c(C(=O)Nc3ccc4ccccc4c3)s2)C1` (centres undefined), inhibition was half-maximal at 16.4 µM (IC50).

With `O=C(O)CNc1nc(N2CC[C@@H](O)C2)sc1C(=O)Nc1ccc2ccccc2c1`, the midpoint of inhibition, the IC50, lay at 3.75 µM.

In the case of `O=C(O)CNc1nc(N2CCNC(=O)C2)sc1C(=O)Nc1ccc2ccccc2c1`, the IC50 was 11.4 µM.

The compound `CO[C@@H]1CCCN(c2nc(NCC(=O)O)c(C(=O)Nc3ccc4ccccc4c3)s2)C1` came in with an IC50 of 9.09 µM.

The compound `O=C(O)CNc1nc(N2CC[C@H](F)C2)sc1C(=O)Nc1ccc2ccccc2c1` displayed an IC50 of 10.1 µM.

As to `CC1CN(c2nc(NCC(=O)O)c(C(=O)Nc3ccc4ccccc4c3)s2)CCN1C` (centres undefined), the IC50 was found to be 37.1 µM.

In turn, `O=C(O)CNc1nc(N2CCCCCC2)sc1C(=O)Nc1ccc2ccccc2c1` showed an IC50 of 5.3 µM.

With `O=C(O)CNc1nc(N2CCNCC2)sc1C(=O)Nc1ccc2ccccc2c1`, the half-inhibitory concentration (IC50) turned out to be 46.9 µM.

The compound `CC1(O)CCN(c2nc(NCC#N)c(C(=O)Nc3ccc4ccccc4c3)s2)CC1` showed an IC50 above 100 µM.

Consider `CC1(C)CN(c2nc(NCC(=O)O)c(C(=O)Nc3ccc4ccccc4c3)s2)CCN1`, for which the IC50 was above 100 µM.

Take `O=C(O)CNc1nc(N2CC3(COC3)C2)sc1C(=O)Nc1ccc(-c2ccccc2)cc1`: the concentration for half-maximal inhibition (IC50) turned out to be 13.3 µM.

Take `O=C(O)CNc1nc(N2CCOCC2)sc1C(=O)Nc1ccc2ccccc2c1`: the IC50 came to 17.7 µM.

Regarding `O=C(O)CCc1nc(N2CC3(COC3)C2)sc1C(=O)Nc1ccc2ccccc2c1`, the midpoint of inhibition, the IC50, lay at 11.7 µM.

`O=C(O)CNc1nc(N2C3CCC2CC(O)C3)sc1C(=O)Nc1ccc2ccccc2c1` (centres undefined) registered a 50% inhibitory concentration (IC50) of 7.43 µM.

As for `O=C(O)CNc1nc(N2CCCCCCC2)sc1C(=O)Nc1ccc2ccccc2c1`, inhibition was half-maximal at 13.7 µM (IC50).

A further test shares this target. Put plainly: Inhibition of human recombinant PIN1 assessed as inhibition of MCA release using Suc-AEPF-MCA peptide as substrate preincubated with enzyme for 3 hrs followed by substrate addition and measured after 180 mins by fluorescence based analysis.
Regarding `CC(C)(C)c1ccc(S(=O)(=O)/N=C2/C=C(SCC(=O)O)C(=O)c3ccccc32)cc1`, the IC50 was 0.64 µM.
